Measurements reported in patent publication US20100221763A1, “Specific Acceptors for Transferases to Saccharides and Method for Obtaining and Using Same” (Health Research, Inc, priority 2005, published 2010).
“And” between values parts separate entries of the source, which are not always exact repeats. Equal values may be shown once. Marks after values point to notes of the source that are not given here.

How the values were obtained:
[1] = biological target: T1, Rat recombinant α2,3(N)ST (Rattus norvegicus, UniProt Q02734); assay: Sialyltransferase assay with cloned α2,3(N)ST; assay type: biochemical; settings: for Sialyltransferase activity (%) Cloned α2,3(N)ST: Table I, acceptor 7.5 mM, 100% = 29520 CPM (Galβ1,4GlcNAcβ-O—Al); for Cloned Sialyltransferase Activities α2,3(N) ST %: Table III, compound 7.5 mM, 100% = 38140 CPM (Galβ1,4GlcNAcβ1,6(3-O-MeGalβ1,3)GalNAcα-O-Bn)
T1 construct: purchased Calbiochem
T1 sequence (Q02734 29-374 limits assumed): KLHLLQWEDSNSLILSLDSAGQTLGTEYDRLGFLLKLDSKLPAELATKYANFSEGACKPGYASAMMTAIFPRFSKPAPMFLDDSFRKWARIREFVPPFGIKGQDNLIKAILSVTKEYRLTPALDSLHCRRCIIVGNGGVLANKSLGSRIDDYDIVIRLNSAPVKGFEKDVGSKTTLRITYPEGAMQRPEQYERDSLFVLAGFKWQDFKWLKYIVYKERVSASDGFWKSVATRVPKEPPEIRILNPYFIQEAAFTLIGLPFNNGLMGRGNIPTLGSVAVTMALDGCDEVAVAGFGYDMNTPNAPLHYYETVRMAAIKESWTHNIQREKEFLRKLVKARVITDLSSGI
Method: (§1) Rat recombinant α2,3(O)ST, α2,3(N)ST and α2,6(N)ST were purchased from Calbiochem and stored at either −20° C. or −70° C. as recommended by the supplier. […] 10 μl aliquots of the diluted enzymes were used in the assays run in duplicate.
(§2) The incubation mixtures run in duplicate contained 0.1M NaCacodylate buffer pH6.0, the acceptor (typically at 7.5 mM, or as indicated in some experiments), CMP-[9 ^3H] NeuAc (typically 0.2 μci; 20 μci/nmol or as indicated in some experiments) and the enzyme in a total volume of 20 μl. The control incubation mixtures contained everything except the acceptor. Incubation was carried out for 2 h at 37° C. The enzymatic transfer of [9-^3H] NeuAc to a typical acceptor was linear for 2 h and less than 30% CMP-[9-^3H] NeuAc was utilized. Chromatography, using either Dowex-1-Formate, Sep-Pak C18 or Biogel P2, was applied to separate radioactive product from un-reacted [9-^3H] NeuAc as described below.
(§3) The radioactive products from neutral allyl and methyl glycosides as well as non-glycosides were measured by fractionation on Dowex-1-Formate (Bio-Rad: AG-1X8; 200-400 mesh; format form) as follows: The incubation mixture was diluted with 1.0 ml water and passed through AG-1-formate column (1.0 ml bed volume in a Pasteur pipet which had been washed with 5 ml of 2M Formic acid followed by 10 ml water). The column was washed twice with 1.0 ml water after the entry of the sample and then eluted with 3.0 ml of 0.1M NaCl. The radioactivity present in water and 0.1M NaCl eluates were measured separately using 3a70 scintillation cocktail (Research Products International, Mount Prospect, Ill.) and a Beckman LS6500 scintillation counter. The CPM values were corrected by subtracting the blank CPM. Any radioactivity present in the water eluate (as noticed in the case of some methylglycosides) was added to the corresponding CPM value of 0.1M NaCl eluate. The radioactive products from sulfated and/or sialylated methylglycosides were also measured by the above procedure, only the elution of the AG-1-Formate column was continued further with 3.0 ml of 0.2M NaCl for achieving a complete elution of the radioactive product, a correction being made as before by subtracting the corresponding blank values.
(§4) The radioactive products from benzylglycosides and monosialylated benzylglycosides were measured by hydrophobic chromatography on Sep-Pak C18 cartridge (Waters, Milford, Mass.) and eluting the product with 3.0 ml methanol (30). The radioactivity was determined by liquid scintillation as above.
(§5) For such work, a Biogel P2 column (Fine Mesh; 1.0×116.0 cm) was used with 0.1M pyridine acetate pH5.4 as the eluent at room temperature. The effluent fractions were monitored for radioactivity and the first peak containing radioactivity was collected, lyophilized to dryness, dissolved in 200 μl of water and stored frozen at −20° C. for thin layer chromatography (TLC) and other experimentation.

[2] = biological target: T2, Rat recombinant α2,6(N)ST (Rattus norvegicus, UniProt P13721); assay: Sialyltransferase assay with cloned α2,6(N)ST; assay type: biochemical; settings: for Sialyltransferase activity (%) Cloned α2,6(N)ST: Table I, acceptor 7.5 mM, 100% = 43500 CPM (Galβ1,4GlcNAcβ-O—Al); for Cloned Sialyltransferase Activities α2,6(N)ST %: Table III, compound 7.5 mM, 100% = 30440 CPM (Galβ1,4GlcNAcβ1,6(3-O-MeGalβ1,3)GalNAcα-O-Bn)
T2 construct: purchased Calbiochem
T2 sequence (P13721 1-403): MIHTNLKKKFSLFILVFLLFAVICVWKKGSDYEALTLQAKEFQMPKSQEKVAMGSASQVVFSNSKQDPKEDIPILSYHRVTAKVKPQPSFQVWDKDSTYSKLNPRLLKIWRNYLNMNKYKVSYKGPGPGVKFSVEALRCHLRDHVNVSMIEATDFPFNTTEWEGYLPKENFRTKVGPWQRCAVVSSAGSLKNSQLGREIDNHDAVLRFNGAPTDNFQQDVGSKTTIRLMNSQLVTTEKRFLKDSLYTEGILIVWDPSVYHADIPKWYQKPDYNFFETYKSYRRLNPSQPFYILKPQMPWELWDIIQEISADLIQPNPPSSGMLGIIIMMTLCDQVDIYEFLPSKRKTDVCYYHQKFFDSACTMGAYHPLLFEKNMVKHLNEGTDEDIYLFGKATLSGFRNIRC
Method: as §1, §2, §3, §4, §5

[3] = biological target: T3, Rat recombinant α2,3(O)ST (Rattus norvegicus, UniProt Q11205); assay: Sialyltransferase assay with cloned α2,3(O)ST; assay type: biochemical; settings: for Sialyltransferase activity (%) Cloned α2,3(O)ST: Table I, acceptor 7.5 mM, 100% = 40560 CPM (3-O-MeGalβ1,4GlcNAcβ1,6(Galβ1,3)GalNAcα-O-Bn); for Cloned Sialyltransferase Activities α2,3(O) ST %: Table III, compound 7.5 mM, 100% = 39200 CPM (3-O-MeGalβ1,4GlcNAcβ1,6(Galβ1,3)GalNAcα-O-Bn)
T3 construct: purchased Calbiochem
T3 sequence (Q11205 1-350): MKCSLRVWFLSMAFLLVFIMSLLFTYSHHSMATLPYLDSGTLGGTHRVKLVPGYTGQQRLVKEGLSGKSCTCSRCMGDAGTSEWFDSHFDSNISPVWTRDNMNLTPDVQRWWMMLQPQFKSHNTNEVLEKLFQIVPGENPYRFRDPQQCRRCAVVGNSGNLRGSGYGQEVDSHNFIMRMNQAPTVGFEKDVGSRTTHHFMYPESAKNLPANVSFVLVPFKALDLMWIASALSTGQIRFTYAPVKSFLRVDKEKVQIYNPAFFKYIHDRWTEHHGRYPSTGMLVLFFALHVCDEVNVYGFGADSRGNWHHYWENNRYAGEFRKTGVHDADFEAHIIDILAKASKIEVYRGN
Method: as §1, §2, §3, §4, §5

LNCaP α2,3(O)ST = assay: Sialyltransferase assay with LNCaP cell extract; assay type: biochemical, human; settings: for Sialyltransferase activity (%) LNCaP α2,3(O)ST: Table I, acceptor 7.5 mM, 100% = 30930 CPM (3-O-MeGalβ1,4GlcNAcβ1,6(Galβ1,3)GalNAcα-O-Bn)
Method: The prostate carcinoma cell line, LNCaP, was grown in RPMI 1640 supplemented with 10% fetal bovine serum and antibiotics (penicillin, streptomycin and amphotericin B) under conditions recommended by American Type Culture Collection (Manassas, Va.). The cells were homogenized with 0.1M Tris-Maleate pH6.3 containing 2% Triton X-100 using a Dounce all glass hand-operated homogenizer. The homogenate was centrifuged at 16,000 g for 1 h at 4° C. Protein concentration in supernatant was measured using the BCA assay (Pierce Biotech, Inc., Rockford, Ill.), with BSA as the standard. The supernatant was adjusted to 5 mg protein/ml by adding the necessary amount of extraction buffer and then stored frozen at −20° C. until use. 10 μl aliquot of this extract was used in assays run in duplicate.
as §2, §3, §4, §5

Compound | Sialyltransferase activity (%) Cloned α2,3(N)ST [1] | Sialyltransferase activity (%) Cloned α2,6(N)ST [2] [%] | Sialyltransferase activity (%) Cloned α2,3(O)ST [3] | also measured
C=CCOC1OC(CO)C(O)C(OC2OC(CO)C(O)C(O)C2O)C1NC(C)=O (stereo not shown) [Galβ1,3GlcNAcβ-O—Al] | 123.1% | 3.0 | 42.1% | Sialyltransferase activity (%) LNCaP α2,3(O)ST (LNCaP α2,3(O)ST): 3.7%
CC(=O)N[C@H]1[C@H](OC[C@H]2O[C@H](OCc3ccccc3)[C@H](NC(C)=O)[C@@H](O[C@@H]3O[C@H](CO)[C@H](O)[C@H](O)[C@H]3O)[C@H]2O)O[C@H](CO)[C@@H](O[C@@H]2O[C@H](CO)[C@H](F)[C@H](O)[C@H]2O)[C@@H]1O [4-FGalβ1,4GlcNAcβ1,6(Galβ1,3)GalNAcα-O-Bn] |  |  |  | Cloned Sialyltransferase Activities α2,3(N) ST % [1]: 7.9%; Cloned Sialyltransferase Activities α2,6(N)ST % [2]: 2.7%; Cloned Sialyltransferase Activities α2,3(O) ST % [3]: 102.1%
CO[C@H]1[C@@H](O)[C@@H](CO)O[C@@H](O[C@H]2[C@H](O)[C@@H](NC(C)=O)C(O)O[C@@H]2CO)[C@@H]1O (stereo partly shown) [3-O-MeGalβ1,4GlcNAc] | 1.4% | 8.7 | 3.6% | 
CO[C@H]1[C@H](O[C@H]2[C@H](O)[C@@H](CO)O[C@@H](OCc3ccccc3)[C@@H]2NC(C)=O)O[C@H](CO)[C@H](O)[C@@H]1O [2-O-MeGalβ1,3GlcNAcβ-O-Bn] |  | 0 |  | 

Further lines, with some results ahead:

Sialyltransferase activity (%) Cloned α2,3(N)ST [1] | Sialyltransferase activity (%) Cloned α2,6(N)ST [2] [%] | Sialyltransferase activity (%) Cloned α2,3(O)ST [3] | Compound | also measured
1.7% | 0 |  | CO[C@H]1O[C@H](CO[C@@H]2O[C@H](COS(=O)(=O)O)[C@@H](O[C@@H]3O[C@H](CO)[C@H](O)[C@H](O)[C@H]3O)[C@H](O[C@@H]3O[C@@H](C)[C@@H](O)[C@@H](O)[C@@H]3O)[C@H]2NC(C)=O)[C@H](O)[C@H](O[C@@H]2O[C@H](CO)[C@H](O)[C@H](O[C@]3(C(=O)O)C[C@H](O)[C@@H](NC(C)=O)[C@H]([C@H](O)[C@H](O)CO)O3)[C@H]2O)[C@H]1NC(C)=O [Galβ1,4(6-O-Sulfo)(Fucα1,3)GlcNAcβ1,6(NeuAcα2,3Galβ1,3)GalNAcα-O-Me] | 
19.0% | 7.1 | 133.4% | CO[C@H]1O[C@H](CO[C@@H]2O[C@H](CO)[C@@H](O[C@@H]3O[C@H](CO)[C@H](O)[C@H](O)[C@H]3O)[C@H](O[C@@H]3O[C@@H](C)[C@@H](O)[C@@H](O)[C@@H]3O)[C@H]2NC(C)=O)[C@H](O)[C@H](O[C@@H]2O[C@H](CO)[C@H](O)[C@H](O)[C@H]2O)[C@H]1NC(C)=O [Galβ1,4(Fucα1,3)GlcNAcβ1,6(Galβ1,3)GalNAcα-O-Me] | 
6.1% | 4.4 | 100.0% and 100.0^c % | CO[C@H]1[C@@H](O)[C@@H](CO)O[C@@H](O[C@H]2[C@H](O)[C@@H](NC(C)=O)[C@H](OC[C@H]3O[C@H](OCc4ccccc4)[C@H](NC(C)=O)[C@@H](O[C@@H]4O[C@H](CO)[C@H](O)[C@H](O)[C@H]4O)[C@H]3O)O[C@@H]2CO)[C@@H]1O [3-O-MeGalβ1,4GlcNAcβ1,6(Galβ1,3)GalNAcα-O-Bn] | Cloned Sialyltransferase Activities α2,3(N) ST % [1]: 4.5%; Cloned Sialyltransferase Activities α2,6(N)ST % [2]: 6.4%; Cloned Sialyltransferase Activities α2,3(O) ST % [3]: 100.0^c %; Sialyltransferase activity (%) LNCaP α2,3(O)ST (LNCaP α2,3(O)ST): 100.9% and 100.0% and 100.0^d %; LNCaPα2,3(O)ST % (LNCaP α2,3(O)ST; Table III, compound 7.5 mM, 100% = 30100 CPM (3-O-MeGalβ1,4GlcNAcβ1,6(Galβ1,3)GalNAcα-O-Bn)): 100.0^d %
50.8% and 50.8^22% | 0.9 |  | CO[C@H]1O[C@H](CO[C@@H]2O[C@H](COS(=O)(=O)O)[C@@H](O[C@@H]3O[C@H](CO)[C@H](O)[C@H](O)[C@H]3O)[C@H](O)[C@H]2NC(C)=O)[C@H](O)[C@H](O[C@@H]2O[C@H](CO)[C@H](O)[C@H](O[C@]3(C(=O)O)C[C@H](O)[C@@H](NC(C)=O)[C@H]([C@H](O)[C@H](O)CO)O3)[C@H]2O)[C@H]1NC(C)=O [Galβ1,4(6-O-Sulfo)GlcNAcβ1,6(NeuAcα2,3Galβ1,3)GalNAcα-O-Me] | Sialyltransferase activity (%) Cloned α2,3(N)ST ([1]; listed as Galβ1,4(6-O-Sulfo)GlcNAcβ1,6(NeuAcα2,3Galβ1,3)GalNAcα-): 50.8%
100.7% | 93.3 | 94.4^4% | CC(=O)N[C@H]1[C@H](OC[C@H]2O[C@H](OCc3ccccc3)[C@H](NC(C)=O)[C@@H](O[C@@H]3O[C@H](CO)[C@H](O)[C@H](O)[C@H]3O)[C@H]2O)O[C@H](CO)[C@@H](O[C@@H]2O[C@H](CO)[C@H](O)[C@H](O)[C@H]2O)[C@@H]1O [Galβ1,4GlcNAcβ1,6(Galβ1,3)GalNAcα-O-Bn] | α2,6(N)ST activity at varying acceptor concentration (FIG. 3A) ([2]; lowest concentration tested, 0.15 mM): considerable activity
